Measured values: the NIST ThermoML archive (doi:10.1016/j.jct.2016.11.009)

Details: Gas, Buoyancy - hydrostatic balance with magnetic suspension - one sinker

N#N [nitrogen]
Details	mass density [kg/m3]
304.03 K, 17990 kPa	190.64
304.1 K, 16877 kPa	180.004
304.11 K, 6796 kPa	75.316
304.11 K, 12948 kPa	140.851
304.12 K, 5782 kPa	64.151
304.13 K, 8812 kPa	97.213
304.14 K, 4379 kPa	48.633
304.15 K, 2926 kPa	32.502
304.15 K, 7820 kPa	86.489
304.15 K, 11901 kPa	129.994
304.15 K, 15984 kPa	171.278
304.16 K, 10861 kPa	119.075
304.16 K, 14927 kPa	160.84
304.17 K, 13944 kPa	150.964
304.23 K, 9837 kPa	108.209
304.55 K, 2607 kPa	28.885
304.66 K, 3534 kPa	39.15
304.66 K, 7983 kPa	88.017
304.69 K, 7136 kPa	78.822
304.73 K, 16296 kPa	173.901
304.75 K, 8937 kPa	98.306
304.75 K, 12245 kPa	133.207
304.77 K, 4983 kPa	55.145
304.77 K, 14270 kPa	153.864
304.78 K, 10988 kPa	120.097
304.8 K, 3016 kPa	33.394
304.82 K, 5885 kPa	65.065
304.83 K, 8012 kPa	88.26
304.83 K, 10043 kPa	110.076
304.88 K, 3013 kPa	33.353
304.88 K, 18305 kPa	192.939
304.89 K, 6933 kPa	76.521
305.04 K, 4986 kPa	55.132
305.17 K, 4987 kPa	55.12
